Laboratory results from publication PMC6691016, “Glycosylation influences activity, stability and immobilization of the feruloyl esterase 1a from Myceliophthora thermophila” (AMB Express, 2019).

Tests used:
[1] = biological target: T1, M-Fae (MtFae1a produced in M. thermophila) (Thermothelomyces thermophilus, UniProt G2QND5); test: continuous absorbance assay at […] nm, non-linear regression; format: biochemical; settings: substrate inhibition constant; free enzyme, 100 mM sodium phosphate pH 7.0, 35 °C; 5% DMSO
T1 construct: gene Fae1a; mature (signal peptide, first 18 residues, removed); homologous over-production in M. thermophila C1; no tag stated; N-glycosylated at Asn117 and Asn179; calculated MW 29506 Da, 31 kDa on SDS-PAGE; homodimer only predicted
T1 sequence (G2QND5 19-291): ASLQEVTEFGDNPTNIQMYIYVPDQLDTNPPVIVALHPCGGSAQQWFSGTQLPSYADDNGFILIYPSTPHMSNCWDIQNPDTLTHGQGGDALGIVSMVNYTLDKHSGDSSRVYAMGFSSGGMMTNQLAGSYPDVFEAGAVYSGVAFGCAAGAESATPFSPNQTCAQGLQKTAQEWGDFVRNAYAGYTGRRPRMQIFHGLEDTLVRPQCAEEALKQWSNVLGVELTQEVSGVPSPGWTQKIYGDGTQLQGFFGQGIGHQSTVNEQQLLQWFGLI

[2] = biological target: T2, P-Fae (MtFae1a produced in P. pastoris) (Thermothelomyces thermophilus, UniProt G2QND5); test: as above; format: biochemical; settings: substrate inhibition constant; free enzyme, 100 mM sodium phosphate pH 7.0, 35 °C; 5% DMSO
T2 construct: gene Fae1a; mature (signal peptide, first 18 residues, removed); secreted from Pichia pastoris GS115 (vector pPNic706); no tag stated; N-glycosylated at Asn117 and Asn179 with larger glycans; calculated MW 29506 Da, 33 kDa on SDS-PAGE; homodimer only predicted
T2 sequence (G2QND5 19-291): as above

With `COC(=O)/C=C/c1ccc(O)cc1` [MpCA, methyl p-coumarate] the “Ksi” value [1] was 1.46 ± 0.29 mM and the “Ksi” value [2] was 1.84 ± 0.28 mM.
